# Results as given in patent US20110053833A1, “SYNTHETIC PEPTIDES AND THEIR USE” (priority 2007, published 2011).
# Legend:
# Type in all cases: cell-based
# E. coli = assay: Microbicidal activity, peptides incubated with E. coli for 2 h in BP; conditions: 2 h incubation in BP; two fold dilution steps starting at 100 μg/ml
# Experimental: (§1) The peptides were incubated with E. coli, S. aureus or C. albicans for 2 h in BP. The peptides were diluted in two fold steps starting at 100 μg/ml or 200 μg/ml (C. albicans).
# C. albicans = assay: Microbicidal activity, peptides incubated with C. albicans for 2 h in BP; conditions: 2 h incubation in BP; two fold dilution steps starting at 200 μg/ml
# Experimental: as §1
# [1] = system: E. coli, S. aureus or C. albicans; assay: Microbicidal activity, overall comparison with native hLF-derived peptide; conditions: versus HLBD1
# Experimental: as §1
# S. aureus = assay: Microbicidal activity, peptides incubated with S. aureus for 2 h in BP; conditions: 2 h incubation in BP; two fold dilution steps starting at 100 μg/ml
# Experimental: as §1
Substance,MMC99% E. coli (E. coli),MMC99% C. albicans (C. albicans),microbicidal activity compared with the corresponding peptide derived from the sequence of native hLF [1],MMC99% S. aureus (S. aureus)
"EATKCFQWKRNMRKVRGPPVSCIKR (EATKCFQWKRNMRKVRGPPVSCIKR; a fragment of human lactoferrin corresponding to aa 16-40 wherein one aa has been substituted) [HLBD1Q24K, synthetic peptide according to the present invention]",12 µg/mL,50 µg/mL,considerably higher,25 µg/mL
"EATKCFQWQRNMRKVRGPPVSCIKR (EATKCFQWQRNMRKVRGPPVSCIKR; a fragment of human lactoferrin corresponding to aa 16-40 wherein two aa has been substituted) [HLBD1, reference compound]",50 µg/mL,200 µg/mL,–,50 µg/mL
